Experimental data taken from ChEMBL document CHEMBL4387732, “Capsaicin-like analogue induced selective apoptosis in A2058 melanoma cells: Design, synthesis and molecular modeling” (Bioorg Med Chem, 2019).
Activity calls are given as the source filed them. No cut-off for these calls is given here.

Experiments:
B16-F10 [1] = assay: Cytotoxicity against mouse B16F10 cells assessed as decrease in cell viability incubated for 24 hrs by MTT assay; assay type: functional, cell-based; details: B16-F10, 24 h
[2] = Selectivity index, ratio of IC50 for human T75 cells to IC50 for human A2058 cells
U-87 MG = assay: Cytotoxicity against human U87 cells assessed as decrease in cell viability incubated for 24 hrs by MTT assay; assay type: functional, cell-based, U-87MG ATCC
[3] = Cytotoxicity against human T75 cells assessed as decrease in cell viability incubated for 24 hrs by MTT assay; assay type: cell-based
SK-MEL-25 = assay: Cytotoxicity against human SK-MEL-25 cells assessed as decrease in cell viability incubated for 24 hrs by MTT assay; assay type: functional, cell-based; details: SK-MEL-25, 24 h
MCF7 = assay: Cytotoxicity against human MCF7 cells assessed as decrease in cell viability incubated for 24 hrs by MTT assay; assay type: functional, cell-based
HeLa = assay: Cytotoxicity against human HeLa cells assessed as decrease in cell viability incubated for 24 hrs by MTT assay; assay type: functional, cell-based
A2058 [4] = assay: Cytotoxicity against human A2058 cells assessed as decrease in cell viability incubated for 24 hrs by MTT assay; assay type: functional, cell-based; details: A2058, 24 h
[5] = biological target: T1, Transient receptor potential cation channel subfamily V member 6 (Homo sapiens) (UniProt Q9H1D0); assay: Antagonist activity at human TRPV6 expressed in human HEK293 cells assessed as reduction in Ca2+ transport at 2.5 uM incubated for 5 mins by calcium-5 fluorescence dye-based FLIPR assay; assay type: cell-based
T1 sequence (whole entry): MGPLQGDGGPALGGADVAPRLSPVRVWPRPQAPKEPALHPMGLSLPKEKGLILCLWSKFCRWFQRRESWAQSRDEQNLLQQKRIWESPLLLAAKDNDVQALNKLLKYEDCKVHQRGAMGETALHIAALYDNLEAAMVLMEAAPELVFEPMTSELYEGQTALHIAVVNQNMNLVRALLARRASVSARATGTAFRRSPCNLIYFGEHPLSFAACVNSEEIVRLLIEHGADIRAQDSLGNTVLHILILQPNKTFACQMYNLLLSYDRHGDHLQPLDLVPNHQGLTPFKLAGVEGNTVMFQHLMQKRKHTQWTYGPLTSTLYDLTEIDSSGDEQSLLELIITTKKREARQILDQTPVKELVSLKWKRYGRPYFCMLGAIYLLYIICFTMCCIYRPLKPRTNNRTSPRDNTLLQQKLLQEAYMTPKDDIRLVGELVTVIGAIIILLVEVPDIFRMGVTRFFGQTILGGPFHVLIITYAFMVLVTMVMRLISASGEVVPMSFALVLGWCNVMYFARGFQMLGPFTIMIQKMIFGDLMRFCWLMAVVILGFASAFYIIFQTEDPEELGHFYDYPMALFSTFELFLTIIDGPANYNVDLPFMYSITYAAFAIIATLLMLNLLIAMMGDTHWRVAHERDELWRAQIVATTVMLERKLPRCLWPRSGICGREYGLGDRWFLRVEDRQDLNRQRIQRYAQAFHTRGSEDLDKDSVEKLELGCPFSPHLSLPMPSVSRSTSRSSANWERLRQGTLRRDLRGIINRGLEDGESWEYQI

[6] = biological target: T1, Transient receptor potential cation channel subfamily V member 6 (Homo sapiens); assay: Agonist activity at human TRPV6 expressed in human HEK293 cells assessed as increase in Ca2+ transport at 100 nM incubated for 5 mins by calcium-5 fluorescence dye-based FLIPR assay; assay type: cell-based
HEK-293T = assay: Effect on Ca2+ transport in human HEK293T cells incubated for 5 mins by calcium-5 fluorescence dye-based FLIPR assay; assay type: functional, cell-based
Mus musculus = assay: In-vivo activation of TRPV1 receptor in Swiss mouse assessed as induction of nociception by measuring paw flinching/licking response at 5.2 nmol/paw administrated via intraplantar route and measured for first 5 mins post treatment; assay type: functional, organism-based
A2058 [7] = assay: Cell cycle arrest in human A2058 cells assessed as accumulation of cells in subG0/G1 phase at 12.5 to 50 uM incubated for 24 hrs by propidium iodide staining-based flow cytometric analysis; assay type: functional
A2058 [8] = assay: Cytotoxicity against human A2058 cells assessed as marked formation of apoptotic bodies incubated for 24 hrs by microscopic method; assay type: functional, cell-based
B16-F10 [9] = assay: Cytotoxicity against mouse B16F10 cells assessed as cell cycle arrest incubated for 24 hrs by microscopic method; assay type: functional, cell-based
B16-F10 [10] = assay: Cell cycle arrest in mouse B16F10 cells assessed as increase the G0/G1 phase incubated for 24 hrs by propidium iodide staining-based flow cytometric analysis; assay type: functional
A2058 [11] = assay: Induction of apoptosis in human A2058 cells assessed as ratio of beta-actin to caspase 3 expression incubated for 1 hrs by Western blot analysis; assay type: functional
A2058 [12] = assay: Cytotoxicity against human A2058 cells assessed as loss of refringence incubated for 24 hrs by microscopic method; assay type: functional, cell-based
[13] = biological target: T1, Transient receptor potential cation channel subfamily V member 6 (Homo sapiens); assay: Agonist activity at human TRPV6 expressed in human HEK293 cells assessed as increase in Ca2+ transport at 50 uM incubated for 5 mins by calcium-5 fluorescence dye-based FLIPR assay; assay type: cell-based
A2058 [14] = assay: Induction of apoptosis in human A2058 cells assessed as ratio of beta-actin to C-RAF expression incubated for 3 hrs by Western blot analysis; assay type: functional
A2058 [15] = assay: Induction of apoptosis in human A2058 cells assessed as ratio of beta-actin to BCL-XL expression incubated for 3 hrs by Western blot analysis; assay type: functional
A2058 [16] = assay: Cytotoxicity against human A2058 cells assessed as loss of cell adhesion incubated for 24 hrs by microscopic method; assay type: functional, cell-based
A2058 [17] = assay: Induction of apoptosis in human A2058 cells assessed as ratio of beta-actin to C-RAF expression incubated for 1 hrs by Western blot analysis; assay type: functional
A2058 [18] = assay: Induction of apoptosis in human A2058 cells assessed as ratio of beta-actin to BCL-XL expression incubated for 6 hrs by Western blot analysis; assay type: functional
A2058 [19] = assay: Induction of apoptosis in human A2058 cells assessed as ratio of beta-actin to caspase 3 expression incubated for 3 hrs by Western blot analysis; assay type: functional
A2058 [20] = assay: Induction of apoptosis in human A2058 cells assessed as ratio of beta-actin to B-RAF expression incubated for 1 hrs by Western blot analysis; assay type: functional
A2058 [21] = assay: Induction of apoptosis in human A2058 cells assessed as ratio of beta-actin to B-RAF expression incubated for 3 hrs by Western blot analysis; assay type: functional
A2058 [22] = assay: Induction of apoptosis in human A2058 cells assessed as ratio of beta-actin to C-RAF expression incubated for 6 hrs by Western blot analysis; assay type: functional
B16-F10 [23] = assay: Cell cycle arrest in mouse B16F10 cells assessed as variation in subG0/G1 population at 12.5 to 50 uM incubated for 24 hrs by propidium iodide staining-based flow cytometric analysis; assay type: functional
A2058 [24] = assay: Cytotoxicity against human A2058 cells assessed as induction of withdrawal of cytoplasm incubated for 24 hrs by microscopic method; assay type: functional, cell-based
A2058 [25] = assay: Induction of apoptosis in human A2058 cells assessed as ratio of beta-actin to B-RAF expression incubated for 6 hrs by Western blot analysis; assay type: functional
A2058 [26] = assay: Cytotoxicity against human A2058 cells assessed as alteration in cell morphology incubated for 24 hrs by microscopic method; assay type: functional, cell-based
A2058 [27] = assay: Induction of apoptosis in human A2058 cells assessed as increase in cleaved caspase 3 expression level incubated for 6 hrs by Western blot analysis; assay type: functional, cell-based
A2058 [28] = assay: Cell cycle arrest in human A2058 cells assessed as accumulation of cells in G0/G1 phase incubated for 24 hrs by propidium iodide staining-based flow cytometric analysis; assay type: functional
[29] = biological target: T2, Transient receptor potential cation channel subfamily V member 1 (Homo sapiens, UniProt Q8NER1); assay: Agonist activity at human TRPV1 expressed in human HEK293T cells assessed as increase in Ca2+ transport at 10 uM incubated for 5 mins in presence of TRPV1 antagonist capsazepine by calcium-5 fluorescence dye-based FLIPR assay; assay type: cell-based
T2 sequence (Q8NER1 whole entry): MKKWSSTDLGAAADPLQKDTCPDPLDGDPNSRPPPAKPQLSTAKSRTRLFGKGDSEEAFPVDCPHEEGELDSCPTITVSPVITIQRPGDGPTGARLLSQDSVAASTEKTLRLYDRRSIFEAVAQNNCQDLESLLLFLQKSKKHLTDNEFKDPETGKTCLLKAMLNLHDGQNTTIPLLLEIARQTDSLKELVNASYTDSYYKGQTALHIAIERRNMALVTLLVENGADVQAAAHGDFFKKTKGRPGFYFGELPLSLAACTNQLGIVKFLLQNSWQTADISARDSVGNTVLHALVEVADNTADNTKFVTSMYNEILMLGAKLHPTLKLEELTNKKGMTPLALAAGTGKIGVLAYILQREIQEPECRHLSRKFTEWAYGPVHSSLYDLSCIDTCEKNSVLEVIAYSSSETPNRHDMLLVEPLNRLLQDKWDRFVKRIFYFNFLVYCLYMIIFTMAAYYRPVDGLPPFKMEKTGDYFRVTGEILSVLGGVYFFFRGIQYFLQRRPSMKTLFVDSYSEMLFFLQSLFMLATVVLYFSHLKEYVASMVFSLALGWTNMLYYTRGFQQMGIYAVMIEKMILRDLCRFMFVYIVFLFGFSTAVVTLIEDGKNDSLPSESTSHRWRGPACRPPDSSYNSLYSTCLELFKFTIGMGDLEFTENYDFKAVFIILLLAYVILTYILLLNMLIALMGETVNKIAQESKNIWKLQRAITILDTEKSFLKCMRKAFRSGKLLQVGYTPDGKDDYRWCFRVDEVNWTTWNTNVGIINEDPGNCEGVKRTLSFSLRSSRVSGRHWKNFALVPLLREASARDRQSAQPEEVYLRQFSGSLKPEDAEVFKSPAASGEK

A2058 [30] = assay: Induction of apoptosis in human A2058 cells assessed as ratio of beta-actin to BCL-XL expression incubated for 1 hrs by Western blot analysis; assay type: functional
[31] = biological target: T2, Transient receptor potential cation channel subfamily V member 1; assay: Agonist activity at human TRPV1 expressed in HEK293T cells assessed as increase in Ca2+ transport incubated for 5 mins by calcium-5 fluorescence dye-based FLIPR assay; assay type: cell-based
A2058 [32] = assay: Induction of apoptosis in human A2058 cells assessed as ratio of beta-actin to caspase 3 expression incubated for 6 hrs by Western blot analysis; assay type: functional

## COc1ccc(NC(=O)NCc2ccc(O)c(OC)c2)cc1
B16-F10 [1]
  IC50: > 100 µM
[2]
  Ratio IC50: >1.08
U-87 MG
  IC50: > 100 µM
[3]
  IC50: > 100 µM
SK-MEL-25
  IC50: 91.8 µM
MCF7
  Activity: inactive
HeLa
  Activity: inactive
A2058 [4]
  IC50: 92.5 µM

## Cc1cccc([C@H]2CC[C@@H](N3CCN(c4cccnc4)CC3)CC2)c1
[5]
  inhibition: Active

## COc1cc(CNC(=O)Nc2ccc(Cl)cc2)ccc1O
B16-F10 [1]
  IC50: > 100 µM
[2]
  Ratio IC50: >1.18
U-87 MG
  IC50: 92.5 µM
[3]
  IC50: > 100 µM
SK-MEL-25
  IC50: 90.5 µM
MCF7
  Activity: inactive
HeLa
  Activity: inactive
A2058 [4]
  IC50: 84.5 µM

## COc1cc(CNC(=O)CCCC/C=C/C(C)C)ccc1O [CAPSAICIN]
B16-F10 [1]
  IC50: > 100 µM
U-87 MG
  IC50: > 100 µM
[3]
  IC50: > 100 µM
[6]
  Activity: inactive
SK-MEL-25
  IC50: > 100 µM
HEK-293T
  Activity: inactive
A2058 [4]
  IC50: > 100 µM
Mus musculus
  Activity: Active

## COc1cc(CNC(=O)Nc2ccc([N+](=O)[O-])cc2)ccc1O
B16-F10 [1]
  IC50: > 100 µM
[2]
  Ratio IC50: >1.1
U-87 MG
  IC50: 98.5 µM
[3]
  IC50: > 100 µM
SK-MEL-25
  IC50: 98.7 µM
MCF7
  Activity: inactive
HeLa
  Activity: inactive
A2058 [4]
  IC50: 98.2 µM

## CCCCCCNC(=S)NCc1ccc2c(c1)OCO2
A2058 [7]
  Activity: Active
A2058 [8]
  Activity: Active
B16-F10 [1]
  IC50: > 100 µM
B16-F10 [9]
  Activity: Active
B16-F10 [10]
  Activity: Dose-dependent effect
A2058 [11]
  Ratio: 1.18
A2058 [12]
  Activity: Active
[13]
  Activity: inactive
A2058 [14]
  Ratio: 0.49
A2058 [15]
  Ratio: 1.2
[2]
  Ratio IC50: >1.8
A2058 [16]
  Activity: Active
A2058 [17]
  Ratio: 0.6
A2058 [18]
  Ratio: 0.6
U-87 MG
  IC50: 87 µM
[3]
  IC50: > 100 µM
A2058 [19]
  Ratio: 1.11
A2058 [20]
  Ratio: 0.45
A2058 [21]
  Ratio: 0.48
A2058 [22]
  Ratio: 0.32
B16-F10 [23]
  Activity: inactive
A2058 [24]
  Activity: Active
SK-MEL-25
  IC50: 67.2 µM
MCF7
  Activity: inactive
A2058 [25]
  Ratio: 0.52
A2058 [26]
  Activity: Active
A2058 [27]
  Activity: Active
HEK-293T
  Activity: inactive
A2058 [28]
  Activity: Dose-dependent effect
[29]
  Activity: inactive
A2058 [30]
  Ratio: 1.22
HeLa
  Activity: inactive
[31]
  EC50: 4.62 µM
A2058 [4]
  IC50: 55.2 µM
Mus musculus
  Activity: inactive
A2058 [32]
  Ratio: 0.6
